The text below walks through data of patent EP4553080A1, “NUCLEOSIDE DERIVATIVES AS ANTIVIRAL AGENTS AGAINST CORONAVIRUSES” (Ustav Organicke Chemie a Biochemie AV CR, v.v.i., priority 2023, dated 2025).

In general, IC50 refers to the concentration needed to halve the response being measured.

The assay has as its target nsp14 methyltransferase from SARS-CoV-2 (Severe acute respiratory syndrome coronavirus 2, UniProt P0DTD1). Briefly: Nsp14 MTase activity inhibition in vitro (EchoMS assay). Conditions: recombinant nsp14 protein expressed in E. coli; dose-response curve. In kind it is biochemical.

Molecules are shown by their SMILES.

`Cn1c(-c2ccccc2)nc(-c2ccccc2)c1CSC[C@H]1O[C@@H](n2ccc3c(N)ncnc32)[C@H](O)[C@@H]1O` [Compound 120c, (2R,3R,4S,5S)-2-(4-Amino-7H-pyrrolo[2,3-d]pyrimidin-7-yl)-5-((((1-methyl-2,4-diphenyl-1H-imidazol-5-yl)methyl)thio)methyl)tetrahydrofuran-3,4-diol]: the IC50 was 30 to 100 nM.
For the molecule `Cc1noc(-c2ccccc2)c1CSC[C@H]1O[C@@H](n2cc(I)c3c(N)ncnc32)[C@H](O)[C@@H]1O` [Compound 123, (2R,3R,4S,5S)-2-(4-Amino-5-iodo-7H-pyrrolo[2,3-d]pyrimidin-7-yl)-5-((((3-methyl-5-phenylisoxazol-4-yl)methyl)thio)methyl)tetrahydrofuran-3,4-diol], the IC50 lay in the range of 30 to 100 nM.
Then `Cc1noc(-c2ccccc2)c1CSC[C@H]1O[C@@H](n2cc(F)c3c(N)ncnc32)[C@H](O)[C@@H]1O` [Compound 128, (2R,3R,4S,5S)-2-(4-Amino-5-fluoro-7H-pyrrolo[2,3-d]pyrimidin-7-yl)-5-((((3-methyl-5-phenylisoxazol-4-yl)methyl)thio)methyl)tetrahydrofuran-3,4-diol], with 100 to 500 nM; and `Cc1noc(-c2ccccc2)c1CSC[C@H]1O[C@@H](n2cc(C(C)C)c3c(N)ncnc32)[C@H](O)[C@@H]1O` [Compound 129b], with 100 to 500 nM.
With `CCC(C)c1cn([C@@H]2O[C@H](CSCc3c(C)noc3-c3ccccc3)[C@@H](O)[C@H]2O)c2ncnc(N)c12` (stereo partly drawn) [Compound 130b, (2R,3R,4S,5S)-2-(4-Amino-5-(sec-butyl)-7H-pyrrolo[2,3-d]pyrimidin-7-yl)-5-((((3-methyl-5-phenylisoxazol-4-yl)methyl)thio)methyl)tetrahydrofuran-3,4-diol], the IC50 was 100 to 500 nM.
On to `Cc1noc(-c2ccccc2)c1CSC[C@H]1O[C@@H](n2cc(CC(C)C)c3c(N)ncnc32)[C@H](O)[C@@H]1O` [Compound 131b, (2R,3R,4S,5S)-2-(4-Amino-5-isobutyl-7H-pyrrolo[2,3-d]pyrimidin-7-yl)-5-((((3-methyl-5-phenylisoxazol-4-yl)methyl)thio)methyl)tetrahydrofuran-3,4-diol], for which the IC50 lay in the range of 100 to 500 nM.
With `CCCCCc1cn([C@@H]2O[C@H](CSCc3c(C)noc3-c3ccccc3)[C@@H](O)[C@H]2O)c2ncnc(N)c12` [Compound 132b, (2R,3R,4S,5S)-2-(4-Amino-5-pentyl-7H-pyrrolo[2,3-d]pyrimidin-7-yl)-5-((((3-methyl-5-phenylisoxazol-4-yl)methyl)thio)methyl)tetrahydrofuran-3,4-diol] the figure was 500 to 2000 nM; with `Cc1noc(-c2ccccc2)c1CSC[C@H]1O[C@@H](n2cc(C3CCCC3)c3c(N)ncnc32)[C@H](O)[C@@H]1O` [Compound 133b, (2R,3R,4S,5S)-2-(4-Amino-5-cyclopentyl-7H-pyrrolo[2,3-d]pyrimidin-7-yl)-5-((((3-methyl-5-phenylisoxazol-4-yl)methyl)thio)methyl)tetrahydrofuran-3,4-diol], 100 to 500 nM.
`Cc1noc(-c2ccccc2)c1CSC[C@H]1O[C@@H](n2cc(C3CCCCC3)c3c(N)ncnc32)[C@H](O)[C@@H]1O` [Compound 134b, (2R,3R,4S,5S)-2-(4-Amino-5-cyclohexyl-7H-pyrrolo[2,3-d]pyrimidin-7-yl)-5-((((3-methyl-5-phenylisoxazol-4-yl)methyl)thio)methyl)tetrahydrofuran-3,4-diol]: the IC50 lay within 100 to 500 nM.
Consider `Cc1noc(-c2ccccc2)c1CSC[C@H]1O[C@@H](n2cc(CC3CCCCC3)c3c(N)ncnc32)[C@H](O)[C@@H]1O` [Compound 135b, (2R,3R,4S,5S)-2-(4-Amino-5-(cyclohexylmethyl)-7H-pyrrolo[2,3-d]pyrimidin-7-yl)-5-((((3-methyl-5-phenylisoxazol-4-yl)methyl)thio)methyl)tetrahydrofuran-3,4-diol], for which the IC50 fell in the range of 500 to 2000 nM.
`Cc1noc(-c2ccccc2)c1CSC[C@H]1O[C@@H](n2cc(CCCC#N)c3c(N)ncnc32)[C@H](O)[C@@H]1O` [Compound 137b, 4-(4-Amino-7-((2R,3R,4S,5S)-3,4-dihydroxy-5-((((3-methyl-5-phenylisoxazol-4-yl)methyl)thio)methyl)tetrahydrofuran-2-yl)-7H-pyrrolo[2,3-d]pyrimidin-5-yl)butanenitrile]: the IC50 was in the range of 10 to 30 nM.
Then `Cc1noc(-c2ccccc2)c1CSC[C@H]1O[C@@H](n2cc(C#N)c3c(N)ncnc32)[C@H](O)[C@@H]1O` [Compound 138b, 4-Amino-7-((2R,3R,4S,5S)-3,4-dihydroxy-5-((((3-methyl-5-phenylisoxazol-4-yl)methyl)thio)methyl)tetrahydrofuran-2-yl)-7H-pyrrolo[2,3-d]pyrimidine-5-carbonitrile], with 30 to 100 nM.
Take `C=Cc1cn([C@@H]2O[C@H](CSCc3c(C)noc3-c3ccccc3)[C@@H](O)[C@H]2O)c2ncnc(N)c12` [Compound 139b, (2R,3R,4S,5S)-2-(4-Amino-5-vinyl-7H-pyrrolo[2,3-d]pyrimidin-7-yl)-5-((((3-methyl-5-phenylisoxazol-4-yl)methyl)thio)methyl)tetrahydrofuran-3,4-diol]: the IC50 fell in the range of 500 to 2000 nM.
Consider `C#Cc1cn([C@@H]2O[C@H](CSCc3c(C)noc3-c3ccccc3)[C@@H](O)[C@H]2O)c2ncnc(N)c12` [Compound 140b, (2R,3R,4S,5S)-2-(4-Amino-5-ethynyl-7H-pyrrolo[2,3-d]pyrimidin-7-yl)-5-((((3-methyl-5-phenylisoxazol-4-yl)methyl)thio)methyl)tetrahydrofuran-3,4-diol], for which the IC50 fell in the range of 30 to 100 nM.
Turning to `Cc1noc(-c2ccccc2)c1CSC[C@H]1O[C@@H](n2cc(C3=CCC(C#N)CC3)c3c(N)ncnc32)[C@H](O)[C@@H]1O` (stereo partly drawn) [Compound 141b, 4-(4-Amino-7-((2R,3R,4S,5S)-3,4-dihydroxy-5-((((3-methyl-5-phenyhsoxazol-4-yl)methyl)thio)methyl)tetrahydrofuran-2-yl)-7H-pyrrolo[2,3-d]pyrimidin-5-yl)cyclohex-3-ene-1-carbonitrile], the IC50 fell in the range of 10 to 30 nM.
Then `CCc1cn([C@@H]2O[C@H](CSCc3c(C)noc3-c3ccccc3)[C@@H](O)[C@H]2O)c2ncnc(N)c12` [Compound 142, (2R,3R,4S,5S)-2-(4-Amino-5-ethyl-7H-pyrrolo[2,3-d]pyrimidin-7-yl)-5-((((3-methyl-5-phenylisoxazol-4-yl)methyl)thio)methyl)tetrahydrofuran-3,4-diol], with 30 to 100 nM; and `Cc1noc(-c2ccccc2)c1CSC[C@H]1O[C@@H](n2cc(-c3ccc(C#N)cc3)c3c(N)ncnc32)[C@H](O)[C@@H]1O` [Compound 143b, 4-(4-Amino-7-((2R,3R,4S,5S)-3,4-dihydroxy-5-((((3-methyl-5-phenylisoxazol-4-yl)methyl)thio)methyl)tetrahydrofuran-2-yl)-7H-pyrrolo[2,3-d]pyrimidin-5-yl)benzonitrile], with 10 to 30 nM.
As for `Cc1noc(-c2ccccc2)c1CSC[C@H]1O[C@@H](n2cc(-c3ccc([N+](=O)[O-])cc3)c3c(N)ncnc32)[C@H](O)[C@@H]1O` [Compound 144b], the IC50 was 30 to 100 nM.
`Cc1noc(-c2ccccc2)c1CSC[C@H]1O[C@@H](n2cc(-c3ccc(C(F)(F)F)cc3)c3c(N)ncnc32)[C@H](O)[C@@H]1O` [Compound 145b]: the IC50 was in the range of 100 to 500 nM.
Regarding `Cc1noc(-c2ccccc2)c1CSC[C@H]1O[C@@H](n2cc(-c3ccc(OC(F)(F)F)cc3)c3c(N)ncnc32)[C@H](O)[C@@H]1O` [Compound 146b, (2R,3R,4S,5S)-2-(4-Amino-5-(4-(trifluoromethoxy)phenyl)-7H-pyrrolo[2,3-d]pyrimidin-7-yl)-5-((((3-methyl-5-phenylisoxazol-4-yl)methyl)thio)methyl)tetrahydrofuran-3,4-diol], the IC50 is 100 to 500 nM.
Regarding `COc1ccc(-c2cn([C@@H]3O[C@H](CSCc4c(C)noc4-c4ccccc4)[C@@H](O)[C@H]3O)c3ncnc(N)c23)cc1OC` [Compound 147b], the IC50 fell in the range of 10 to 30 nM.
With `Cc1noc(-c2ccccc2)c1CSC[C@H]1O[C@@H](n2cc(-c3ccc4ccccc4c3)c3c(N)ncnc32)[C@H](O)[C@@H]1O` [Compound 148b, (2R,3R,4S,5S)-2-(4-Amino-5-(naphthalen-2-yl)-7H-pyrrolo[2,3-d]pyrimidin-7-yl)-5-((((3-methyl-5-phenylisoxazol-4-yl)methyl)thio)methyl)tetrahydrofuran-3,4-diol] the figure was 100 to 500 nM; with `Cc1noc(-c2ccccc2)c1CSC[C@H]1O[C@@H](n2cc(-c3ccccc3)c3c(N)ncnc32)[C@H](O)[C@@H]1O` [Compound 149, (2R,3R,4S,5S)-2-(4-Amino-5-phenyl-7H-pyrrolo[2,3-d]pyrimidin-7-yl)-5-((((3-methyl-5-phenylisoxazol-4-yl)methyl)thio)methyl)tetrahydrofuran-3,4-diol], 30 to 100 nM; with `Cc1cc(C#N)cc(C)c1-c1cn([C@@H]2O[C@H](CSCc3c(C)noc3-c3ccccc3)[C@@H](O)[C@H]2O)c2ncnc(N)c12` [Compound 150, 4-(4-Amino-7-((2R,3R,4S,5S)-3,4-dihydroxy-5-((((3-methyl-5-phenylisoxazol-4-yl)methyl)thio)methyl)tetrahydrofuran-2-yl)-7H-pyrrolo[2,3-d]pyrimidin-5-yl)-3,5-dimethylbenzonitrile], 10 to 30 nM.
Take `Cc1noc(-c2ccccc2)c1CSC[C@H]1O[C@@H](n2cc(-c3ccc4nc[nH]c4c3)c3c(N)ncnc32)[C@H](O)[C@@H]1O` [Compound 151, (2R,3R,4S,5S)-2-(4-Amino-5-(1H-benzo[d]imidazol-6-yl)-7H-pyrrolo[2,3-d]pyrimidin-7-yl)-5-((((3-methyl-5-phenylisoxazol-4-yl)methyl)thio)methyl)tetrahydrofuran-3,4-diol]: the IC50 fell in the range of 30 to 100 nM.
For the molecule `Cc1noc(-c2ccccc2)c1CSC[C@H]1O[C@@H](n2cc(-c3ccc([N+](=O)[O-])nc3)c3c(N)ncnc32)[C@H](O)[C@@H]1O` [Compound 152, (2R,3R,4S,5S)-2-(4-Amino-5-(6-nitropyridin-3-yl)-7H-pyrrolo[2,3-d]pyrimidin-7-yl)-5-((((3-methyl-5-phenylisoxazol-4-yl)methyl)thio)methyl)tetrahydrofuran-3,4-diol], the IC50 was 30 to 100 nM.
`Cc1noc(-c2ccccc2)c1CSC[C@H]1O[C@@H](n2cc(-c3ccco3)c3c(N)ncnc32)[C@H](O)[C@@H]1O` [Compound 153]: the IC50 was 30 to 100 nM.
